{"source": "paper PMC5120204", "about": "“Identification of an orally active small-molecule PTHR1 agonist for the treatment of hypoparathyroidism” (Nature Communications, 2016)", "key": {"TPTX rats": {"tested_on": "TPTX rats", "assay": "Repeated administration study in TPTX rats, study 2 (add-on to alfacalcidol)", "format": "in vivo, rat", "settings": "once-daily oral 6 mg kg^−1 plus 38 ng kg^−1 of alfacalcidol, 4 weeks", "experimental": "TPTX was carried out in 6-week-old female Crl:CD (SD) rats (Charles River Laboratories). Rats with serum Ca levels of <8.0 mg dl^−1 at 5 days after surgery were used in the following experiments. The rats were divided into four groups both in study 1 and 2, each with a similar mean value of serum Ca levels and body weight. Sample sizes were determined as described in the above single administration study. To evaluate the calcemic effects of PCO371 and hPTHs, we defined a target therapeutic range for serum Ca of 7.6–11.2 mg dl^−1, which corresponds to the low normal to normal range of serum Ca levels.\nTPTX rats were orally treated once daily (vehicle; alfacalcidol (Chugai Pharma Manufacturing) at 38 or 75 ng kg^−1; or alfacalcidol at 38 ng kg^−1 plus PCO371 at 6 mg kg^−1) for 4 weeks. Five or six TPTX rats were assigned to each dose group. The vehicle for alfacalcidol was medium-chain triglyceride (Chugai Pharma Manufacturing). Under isoflurane anaesthesia, jugular vein blood was collected immediately before and at 6 and 10 h after administration to measure serum Ca levels on day 1 (the first dosing day), 8, 14, 22 and 28. Urine was collected for 24 h by using metabolic cages on days 28 and 29. Serum and urine Ca levels were measured in the same way as in the single-dosing study."}, "[1]": {"target": "T1, hPTHR1–hPTHR2 chimeric receptors (C1, C2, C3) and mutant hPTHR1s (M24, M25, M26, M414V, P415L, L416V) (Homo sapiens, UniProt Q03431, L416V/M414V/P415L)", "T1 construct": "expressed in transfected cells; host or cells: COS-7 (transient)", "T1 sequence (Q03431 27-593 E93Y/D94P/K95Y/E96D/A97V/T99D/G100Y/S101A/M414V/P415L/L416V)": "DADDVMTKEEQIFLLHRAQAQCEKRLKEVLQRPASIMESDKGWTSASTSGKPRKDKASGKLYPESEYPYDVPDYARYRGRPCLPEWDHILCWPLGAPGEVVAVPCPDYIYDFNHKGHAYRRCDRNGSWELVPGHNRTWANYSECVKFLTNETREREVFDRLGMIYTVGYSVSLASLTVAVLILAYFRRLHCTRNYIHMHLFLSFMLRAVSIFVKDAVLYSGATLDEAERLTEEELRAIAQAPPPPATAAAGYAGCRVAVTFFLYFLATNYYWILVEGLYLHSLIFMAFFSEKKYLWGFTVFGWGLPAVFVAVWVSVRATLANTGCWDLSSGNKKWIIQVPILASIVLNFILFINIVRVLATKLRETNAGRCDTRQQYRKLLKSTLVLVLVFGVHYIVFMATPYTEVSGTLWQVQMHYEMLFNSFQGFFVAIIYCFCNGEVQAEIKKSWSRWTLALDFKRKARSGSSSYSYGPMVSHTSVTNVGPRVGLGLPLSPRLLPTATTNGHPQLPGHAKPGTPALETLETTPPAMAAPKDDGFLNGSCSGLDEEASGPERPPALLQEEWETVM", "format": "cell-based", "settings": "mutant receptor M25 (M414, P415, L416 replaced)", "experimental": "(§1) COS-7 cells (ATCC) were seeded into a 96-well flat-bottomed plate (1.4 × 10^4 cells per 100 μl per well) and incubated overnight. The next day, the COS-7 cells were transfected by adding 10 μl of a mixture of hPTHR1, hPTHR2 or mutant hPTHR1 plasmid, rat PTHR1 or rat PTHR2 plasmid, or empty vector (0.1 μg per well), FuGENE HD Transfection Reagent (0.4 μl per well, Promega), and Opti-MEM I Reduced Serum Medium (10 μl per well, Life Technologies) to each well. […] The plate was placed in a 37 °C constant-temperature water bath for 20 min to allow the reaction to proceed. After incubation, the liquid in the wells was discarded, the wells were washed with the assay medium (100 μl per well), and the plate was frozen on dry ice. Next, 40 μl of 50 mmol l^−1 HCl was added to each well, and the plate was stored in a freezer set at ≤−20 °C. The cAMP concentrations were measured by using a cAMP EIA kit (GE Healthcare). EC50 values were determined from three independent experiments in duplicate by a non-linear regression Emax model (JMP ver.9.0.2, SAS Institute). The geometric mean of the EC50 values obtained in three experiments in duplicate was calculated using Microsoft Office Excel 2007. […]"}, "[2]": {"tested_on": "hPTHR1–hPTHR2 chimeric receptors (C1, C2, C3) and mutant hPTHR1s (M24, M25, M26, M414V, P415L, L416V)", "format": "cell-based, human", "experimental": "as §1"}, "[3]": {"target": "T2, hPTHR1–hPTHR2 chimeric receptors (C1, C2, C3) and mutant hPTHR1s (M24, M25, M26, M414V, P415L, L416V) (Homo sapiens, UniProt Q03431, P415L)", "T2 construct": "expressed in transfected cells; host or cells: COS-7 (transient)", "T2 sequence (Q03431 27-593 E93Y/D94P/K95Y/E96D/A97V/T99D/G100Y/S101A/P415L)": "T1 sequence (Q03431 27-593 E93Y/D94P/K95Y/E96D/A97V/T99D/G100Y/S101A/M414V/P415L/L416V) with V388M, V390L", "format": "cell-based", "settings": "single replacement P415L", "experimental": "as §1"}, "[4]": {"target": "T3, hPTHR1–hPTHR2 chimeric receptors (C1, C2, C3) and mutant hPTHR1s (M24, M25, M26, M414V, P415L, L416V) (Homo sapiens, UniProt Q03431, A426C/A97V/D353E/D94P/DEL429-429/E431S/E93Y/E96D/G100Y/G350R/I363Y/K359I/K95Y/L436G/L446F/M425V/M445L/N348D/N358D/Q438E/Q440R/S101A/S341V/S356A/S370A/S433T/T349A/T427L/T430H/T435L/T99D/V334A/V338A/V340A/V342A/V365A/V372G/V432F/V439I/Y443C)", "T3 construct": "expressed in transfected cells; host or cells: COS-7 (transient)", "T3 sequence (Q03431 other isoform, or with tags, fused parts or gaps with the stated changes)": "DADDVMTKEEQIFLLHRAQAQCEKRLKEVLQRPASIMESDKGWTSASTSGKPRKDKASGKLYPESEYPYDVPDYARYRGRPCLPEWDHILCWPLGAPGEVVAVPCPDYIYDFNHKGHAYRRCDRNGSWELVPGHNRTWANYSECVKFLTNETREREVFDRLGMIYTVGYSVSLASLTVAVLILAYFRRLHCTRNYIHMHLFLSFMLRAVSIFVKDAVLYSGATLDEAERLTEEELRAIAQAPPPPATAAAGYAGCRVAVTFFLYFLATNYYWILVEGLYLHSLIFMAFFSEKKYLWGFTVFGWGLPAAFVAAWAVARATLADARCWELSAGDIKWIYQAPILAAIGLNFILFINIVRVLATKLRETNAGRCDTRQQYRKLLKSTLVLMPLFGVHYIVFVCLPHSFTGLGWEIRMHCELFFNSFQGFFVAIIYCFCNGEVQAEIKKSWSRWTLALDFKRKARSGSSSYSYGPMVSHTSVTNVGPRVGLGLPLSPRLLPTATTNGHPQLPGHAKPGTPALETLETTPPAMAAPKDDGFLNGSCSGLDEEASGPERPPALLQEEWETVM", "format": "cell-based", "settings": "cells expressing C3", "experimental": "as §1"}}, "note": "Positions count from the first letter of the chain named.", "data": [{"smiles": "Cc1cc(N2C(=O)NC(=O)C2(C)C)cc(C)c1CCS(=O)(=O)N1CCC2(CC1)N=C(c1ccc(OC(F)(F)F)cc1)NC2=O", "note": "[PCO371, 1-{3,5-dimethyl-4-[2-({4-oxo-2-[4-(trifluoromethoxy)phenyl]-1,3,8-triazaspiro[4.5]dec-1-en-8-yl}sulfonyl)ethyl]phenyl}-5,5-dimethylimidazolidine-2,4-dione]", "values": [{"measurement": "serum Ca", "setting": "TPTX rats", "value": "comparable with that by 75 ng kg^−1 of alfacalcidol alone"}, {"measurement": "urinary Ca excretion", "setting": "TPTX rats", "value": "did not elevate urinary Ca excretion"}, {"measurement": "cAMP increase", "setting": "[1]", "value": "lack of cAMP increase"}, {"measurement": "cAMP", "setting": "[2]; cells expressing C1 or C2", "value": "did not do so"}, {"measurement": "cAMP response", "setting": "[2]; single replacements M414V and L416V", "value": "only modest effects"}, {"measurement": "cAMP production", "setting": "[3]", "value": "dramatic reduction"}, {"measurement": "cAMP response", "setting": "[4]", "value": "responded well"}]}]}
